# Earlier results, collected in US20080003262A1, “COMPOSITIONS AND THERAPEUTIC METHODS OF USE” (DrugTech Corporation, priority 2006, published 2008).
# Tested on: DIV
# Settings: intravaginal 2% clindamycin cream or 10% hydrocortisone
compound,measurement,value
C[C@]12CCC(=O)C=C1CC[C@@H]1[C@@H]2[C@@H](O)C[C@@]2(C)[C@H]1CC[C@]2(O)C(=O)CO [hydrocortisone],Response of DIV to treatment,responds
